Experimental data: patent US20130204033A1, “ANTIPROLIFERATIVE COMPOUNDS, CONJUGATES THEREOF, METHODS THEREFOR, AND USES THEREOF” (Medarex, Inc., priority 2009, published 2013)
Where two headings read alike, the source gives them in different places.

Experiments:
Format in all cases: cell-based, human
[1] = system: HCT-15; test: 3H thymidine proliferation assay, HCT-15
Protocol: (§1) This example generally describes the procedures used to assay the antiproliferative activity of compounds of this invention or their conjugates. Human tumor cell lines were obtained from the American Type Culture Collection (ATCC), P.O. Box 1549, Manassas, Va. 20108, USA, and cultured according to instruction from the ATCC. Cells were seeded at 1.0×10^3 or 1.0×10^4 cells/well in 96-well plates for 3 h for ATP assays or ^3H thymidine assays, respectively. 1:3 serial dilutions of free (unconjugated) compounds or their conjugates were added to the wells. Plates were allowed to incubate for 24 to 72 h. The ^3H thymidine plates were pulsed with 1.0 μCi of ^3H-thymidine per well for the last 24 hours of the total incubation period, harvested, and read on a Top Count Scintillation Counter (Packard Instruments, Meriden, Conn.). ATP levels in the ATP plates were measured using the […]-GLO® Luminescent Cell Viability kit following the manufacturer's manual and read on a GLOMAX® 20/20 luminometer (both from Promega, Madison, Wis., USA). The EC50 values—the concentration at which an agent inhibits or reduces cell proliferation by 50% —were determined using PRISM™ software, version 4.0 (GraphPad Software, La Jolla, Calif., USA).
(§2) Using the ^3H thymidine or the ATP luminescence assay, or both, the activities of compounds of this invention were assayed against the following cancer cell lines: HCT-15 (colorectal cancer, multi-drug resistant (MDR)); Hep3B (liver cancer); LNCaP (prostate cancer, androgen receptor positive (AR^+)); MDA-MB-231 (breast cancer, estrogen receptor, progesterone receptor, and Her2 negative (triple negative)); A2058 (melanoma); U-87 MG (glioblastoma); NCI-H460 (NSCLC); A549 (NSCLC); HPAC (pancreatic cancer, primary); PC3 (prostate cancer, AR); BT474 (breast cancer, Her2 highly positive (Her2hi)); SKOV3 (ovarian cancer, Her2hi); 786-O (renal cancer); UO-31 (renal cancer, MDR); NCI-H740 (SCLC); DMS53 (SCLC); SK-BR3 (breast cancer, Her2hi); ZR-75 (breast cancer, estrogen receptor positive); OVCAR3 (ovarian cancer); HL-60 (APL); OVCAR8/Adr (ovarian cancer, MDR); CEM-Cl (ALL); Nomo-1 (AML); RPMI-8226 (MM)); Raji (lymphoma); SW-480 (colorectal cancer, metastatic); SW-620 (colorectal cancer); and H226 (lung cancer). (Not all compounds were assayed against all cell lines.)
(§3) Table 2 provides the data for proliferation assays using the ^3H thymidine method, with an incubation period of 72 h.

[2] = system: LNCaP; test: 3H thymidine proliferation assay, LNCaP
Protocol: as §1, §2, §3

[3] = system: MDA-MB-231; test: 3H thymidine proliferation assay, MDA-MB-231
Protocol: as §1, §2, §3

[4] = system: U-87 MG; test: 3H thymidine proliferation assay, U-87 MG
Protocol: as §1, §2, §3

[5] = system: ZR-75; test: 3H thymidine proliferation assay, ZR-75
Protocol: as §1, §2, §3

[6] = system: CEM-C1; test: 3H thymidine proliferation assay, CEM-C1
Protocol: as §1, §2, §3

[7] = system: Nomo-1; test: 3H thymidine proliferation assay, Nomo-1
Protocol: as §1, §2, §3

[8] = system: RPMI-8226; test: 3H thymidine proliferation assay, RPMI-8226
Protocol: as §1, §2, §3

[9] = system: Hep3B; test: ATP luminescence proliferation assay, Hep3B
Protocol: as §1, §2
(§4) Table 3 provides the data for the ATP luminescence proliferation assays, with an incubation period of 48, 72, or 96 h, as noted.

[10] = system: HPAC; test: ATP luminescence proliferation assay, HPAC; settings: Homo sapiens, 72 h, read-out: EC50 HPAC (72 h), ATP luminescence, HPAC, 72 h incubation
Protocol: as §1, §2, §4

[11] = system: SKOV3; test: ATP luminescence proliferation assay, SKOV3
Protocol: as §1, §2, §4

[12] = system: 786-O; test: ATP luminescence proliferation assay, 786-O
Protocol: as §1, §2
(§5) FIGS. 12a and 12b show illustrative plots for ATP luminescence proliferation assays for a second set of compounds of this invention, against HL-60 and 786-O cells, respectively, with an incubation period of 72 h. FIGS. 12c and 12d show the plots for ^3H thymidine proliferation assays for the same set of compounds, again against HL-60 and 786-O cells, respectively, with a 72 h incubation period. In each instance, doxorubicin was used as a comparative compound.
as §4

[13] = system: DMS53; test: ATP luminescence proliferation assay, DMS53
Protocol: as §1, §2, §4

[14] = system: SK-BR3; test: ATP luminescence proliferation assay, SK-BR3
Protocol: as §1, §2, §4

[15] = system: HL-60; test: ATP luminescence proliferation assay, HL-60
Protocol: as §1, §2, §5, §4

[16] = system: Nomo-1; test: ATP luminescence proliferation assay, Nomo-1
Protocol: as §1, §2, §4

[17] = system: SW-480; test: ATP luminescence proliferation assay, SW-480
Protocol: as §1, §2, §4

[18] = system: UO-31; test: ATP luminescence proliferation assay, UO-31; settings: ATP luminescence, UO-31, 48 h incubation; read-out: EC50 UO-31 (48 h)
Protocol: as §1, §2, §4

[19] = 3H thymidine method, 72 h incubation, read-out: EC50, HCT-15
[20] = 3H thymidine method, 72 h incubation, read-out: EC50, LNCaP
[21] = 3H thymidine method, 72 h incubation, read-out: EC50, MDA-MB-231
[22] = 3H thymidine method, 72 h incubation, read-out: EC50, U-87 MG
[23] = 3H thymidine method, 72 h incubation, read-out: EC50, ZR-75
[24] = 3H thymidine method, 72 h incubation, read-out: EC50, CEM-C1
[25] = 3H thymidine method, 72 h incubation, read-out: EC50, Nomo-1
[26] = 3H thymidine method, 72 h incubation, read-out: EC50, RPMI-8226
[27] = ATP luminescence, 48 h incubation, read-out: EC50 Hep3B (48 h)
[28] = ATP luminescence, SKOV3, 48 h incubation, read-out: EC50 SKOV3 (48 h)
[29] = ATP luminescence, HL-60, 72 h incubation, read-out: EC50 HL-60 (72 h)
[30] = ATP luminescence, Nomo-1, 72 h incubation, read-out: EC50 Nomo-1 (72 h)
[31] = ATP luminescence, SW480, 96 h incubation, read-out: EC50 SW480 (96 h)

Structure (SMILES)	EC50 [1, 19] [nM]	EC50 [2, 20] [nM]	EC50 [3, 21] [nM]	EC50 [4, 22] [nM]	EC50 [5, 23] [nM]	EC50 [6, 24] [nM]	EC50 [7, 25] [nM]	EC50 [8, 26] [nM]	EC50 [9, 27] [nM]	EC50 [11, 28] [nM]	EC50 [15, 29] [nM]	EC50 [16, 30] [nM]	EC50 [17, 31] [nM]	further results
CC[C@H](C)[C@H](NC(=O)[C@H]1CCCCN1C)C(=O)N(COC(=O)CC(C)C)[C@H](C[C@@H](OC(C)=O)c1nc(C(=O)N[C@@H](Cc2ccc(N)cc2)CC(C)C(=O)O)cs1)C(C)C (some centres unmarked) [Compound 54]	–	–	–	–	–	–	–	–	–	–	–	–	–	EC50 ([1]; Homo sapiens, HCT-15, read-out: EC50, HCT-15, 3H thymidine method, 72 h incubation): 0.44 nM; EC50 ([2]; Homo sapiens, LNCaP, read-out: EC50, LNCaP, 3H thymidine method, 72 h incubation): 16 nM; EC50 ([3]; Homo sapiens, MDA-MB-231, read-out: EC50, MDA-MB-231, 3H thymidine method, 72 h incubation): 1.6 nM; EC50 ([4]; Homo sapiens, U-87 MG, read-out: EC50, U-87 MG, 3H thymidine method, 72 h incubation): 0.11 nM; EC50 ([5]; Homo sapiens, ZR75, read-out: EC50, ZR-75, 3H thymidine method, 72 h incubation): 2.2 nM; EC50 ([6]; Homo sapiens, CEM/C1, read-out: EC50, CEM-C1, 3H thymidine method, 72 h incubation): 0.38 nM; EC50 ([7]; Homo sapiens, NOMO-1, read-out: EC50, Nomo-1, 3H thymidine method, 72 h incubation): 0.77 nM; EC50 ([8]; Homo sapiens, RPMI-8226, read-out: EC50, RPMI-8226, 3H thymidine method, 72 h incubation): 0.36 nM; EC50 ([9]; Homo sapiens, 48 h, read-out: EC50 Hep3B (48 h), ATP luminescence, Hep3B, 48 h incubation): 1.5 nM; EC50 [10]: 0.96 nM; EC50 ([11]; Homo sapiens, SK-OV-3, 72 h, read-out: EC50 SKOV3 (72 h), ATP luminescence, SKOV3, 72 h incubation): 1.3 nM; EC50 ([12]; Homo sapiens, 786-0, 72 h, read-out: EC50 786-O (72 h), ATP luminescence, 786-O, 72 h incubation): 2.6 nM; EC50 ([13]; Homo sapiens, DMS-53, 48 h, read-out: EC50 DMS53 (48 h), ATP luminescence, DMS53, 48 h incubation): 7.9 nM; EC50 ([14]; Homo sapiens, SK-BR-3, 48 h, read-out: EC50 SK-BR3 (48 h), ATP luminescence, SK-BR3, 48 h incubation): 6.2 nM; EC50 ([15]; Homo sapiens, HL-60, 48 h, read-out: EC50 HL-60 (48 h), ATP luminescence, HL-60, 48 h incubation): 2.5 nM; EC50 ([16]; Homo sapiens, NOMO-1, 48 h, read-out: EC50 Nomo-1 (48 h), ATP luminescence, Nomo-1, 48 h incubation): 3.1 nM; EC50 ([17]; Homo sapiens, SW480, 96 h, read-out: EC50 SW480 (96 h), ATP luminescence, SW480, 96 h incubation): 1.6 nM
CC[C@H](C)[C@H](NC(=O)[C@H]1CCCCN1C)C(=O)N(C)[C@H](C[C@@H](OC(C)=O)c1nc(C(=O)N[C@@H](Cc2ccc(N)cc2)C(=O)O)cs1)C(C)C [Compound 56]	2480	> 100	> 100	> 100	> 100	> 100	> 100	> 100	> 100	> 100	> 100	> 100	> 100	EC50 ([12]; ATP luminescence, 786-O, 72 h incubation, read-out: EC50 786-O (72 h)): > 100 nM; EC50 ([13]; ATP luminescence, DMS53, 48 h incubation, read-out: EC50 DMS53 (48 h)): > 100 nM; EC50 ([14]; ATP luminescence, SK-BR3, 48 h incubation, read-out: EC50 SK-BR3 (48 h)): > 100 nM
CC[C@H](C)[C@H](NC(=O)[C@H]1CCCCN1C)C(=O)N(COC(=O)CC(C)C)[C@H](C[C@@H](OC(C)=O)c1nc(C(=O)N[C@@H](Cc2ccccc2)C[C@H](C)C(=O)O)cs1)C(C)C [Tub D, tubulysin D, reference compound]	0.062	0.36	0.091	0.014	1.7	0.018	0.042	0.037	0.0012	0.029	0.0096	0.013	0.02	EC50 ([12]; ATP luminescence, 786-O, 48 h incubation, read-out: EC50 786-O (48 h)): 0.022 nM; EC50 [18]: 0.099 nM; EC50 ([13]; ATP luminescence, DMS53, 72 h incubation, read-out: EC50 DMS53 (72 h)): 0.069 nM; EC50 ([14]; ATP luminescence, SK-BR3, 72 h incubation, read-out: EC50 SK-BR3 (72 h)): 0.025 nM
